Experimental data from publication PMC6379368, “Extracellular and intracellular small-molecule galectin-3 inhibitors” (Scientific Reports, 2019).

What was measured:
MCF-7 cells = test: MTT cell viability assay, MCF-7; format: cell-based; details: MCF-7, 72 hours, 0.04–40 µM for 1 and 2, 0.04–20 µM for 3
Procedure: The MTT (3-[4,5-dimethylthiazol-2-yl]−2,5-diphenyltetrazolium bromide) assays were performed as previously described. […] The cells were incubated for 24 hours before addition of galectin-3 inhibitors. The inhibitors were diluted in PBS from their respective stock solution in DMSO (see Galectin-3 inhibitors) and used at final concentrations ranging from 0.04 to 40 μM. DMSO was adjusted to make the final DMSO concentration 0.2% for all inhibitor concentrations, including the control sample (no inhibitor). After 72 hours of treatment, 20 μl of 5 mg/ml MTT solution (in PBS) was added to each well and incubation continued for 1 hour at 37 °C. Thereafter, the MTT containing medium was removed and 100 μl of DMSO was added per well and the plates swirled gently for 10 minutes to dissolve the cells and the purple formazan product precipitate. Absorbance was monitored at 540 nm using a Labsystems iEMS Reader MF (Labsystems Oy, Helsinki, Finland) and the software DeltaSoft II v.4.14 (Biometallics Inc., Princeton, NJ, USA).

JIMT-1 cells = test: Cell proliferation assay (growth curves), JIMT-1; format: cell-based; details: JIMT-1, 5 µM, up to 6 days
Procedure: JIMT-1 cells were seeded in 5 cm diameter Petri dishes at a density of 400 000 cells/Petri dish. […] The cells were harvested by trypsinization and the number of cells was determined by counting in a hemocytometer (each day for a total of 6 days).

AsPC-1 cells = test: MTT assay, AsPC-1 pancreatic cancer cells; format: cell-based; details: AsPC-1, 72 hours
Procedure: (§1) The MTT (3-[4,5-dimethylthiazol-2-yl]−2,5-diphenyltetrazolium bromide) assays were performed as previously described. In brief, cells were seeded in 96-well plates (6000 cells/well for MCF-7 and HCC1937 and 5000 cells for JIMT-1 in 180 μl fully-supplemented medium as described under Cell culture). The cells were incubated for 24 hours before addition of galectin-3 inhibitors. The inhibitors were diluted in PBS from their respective stock solution in DMSO (see Galectin-3 inhibitors) and used at final concentrations ranging from 0.04 to 40 μM. DMSO was adjusted to make the final DMSO concentration 0.2% for all inhibitor concentrations, including the control sample (no inhibitor). After 72 hours of treatment, 20 μl of 5 mg/ml MTT solution (in PBS) was added to each well and incubation continued for 1 hour at 37 °C. […] Absorbance was monitored at 540 nm using a Labsystems iEMS Reader MF (Labsystems Oy, Helsinki, Finland) and the software DeltaSoft II v.4.14 (Biometallics Inc., Princeton, NJ, USA). […]
(§2) Fluorescence anisotropy assay
(§3) The affinity between inhibitor 1 and the carbohydrate recognition domain (CRD) of galectin-8C and between inhibitor 3 and the CRD of galectin-2, -4N, -4C, 8C, and -9C was determined using the fluorescence anisotropy assay described in the main article. […]

MCF-10A cells = test: MTT assay, MCF-10A normal-like breast cell line; format: cell-based; details: 72 hours
Procedure: as §1, §2, §3

galectin-1 = system: galectin-1; design: method as in Delaine et al., Salameh et al., Peterson et al.; details: lower compared to galectin-3; ref Delaine et al., Salameh et al., Peterson et al.; cited from earlier work
[1] = system: animal models of idiopathic pulmonary fibrosis (IPF); design: method as in PMID 27356186, PMID 28055102; details: cited from earlier work

In the case of OC[C@H]1O[C@@H](S[C@@H]2O[C@H](CO)[C@H](O)[C@H](n3cc(-c4cccc(F)c4)nn3)[C@H]2O)[C@H](O)[C@@H](n2cc(-c3cccc(F)c3)nn2)[C@H]1O [compound 1], the “cell viability (MTT)” value (MCF-7 cells) is reported as “no apparent change in cell viability”, the “cell proliferation (growth curves)” value (JIMT-1 cells) is reported as “no effect on cell proliferation” and the “toxicity (MTT)” value (AsPC-1 cells) is reported as “low toxicity”. The “toxicity (MTT)” value (MCF-10A cells) was “low toxicity”, the “affinity for galectin-1” value (galectin-1) was “high affinity” and the “effect in animal models of idiopathic pulmonary fibrosis (IPF)” value [1] was “therapeutic effects”.
